Biological target: T1, Receptor-interacting serine/threonine-protein kinase 1 (Homo sapiens, UniProt Q13546)
T1 sequence (Q13546 whole entry): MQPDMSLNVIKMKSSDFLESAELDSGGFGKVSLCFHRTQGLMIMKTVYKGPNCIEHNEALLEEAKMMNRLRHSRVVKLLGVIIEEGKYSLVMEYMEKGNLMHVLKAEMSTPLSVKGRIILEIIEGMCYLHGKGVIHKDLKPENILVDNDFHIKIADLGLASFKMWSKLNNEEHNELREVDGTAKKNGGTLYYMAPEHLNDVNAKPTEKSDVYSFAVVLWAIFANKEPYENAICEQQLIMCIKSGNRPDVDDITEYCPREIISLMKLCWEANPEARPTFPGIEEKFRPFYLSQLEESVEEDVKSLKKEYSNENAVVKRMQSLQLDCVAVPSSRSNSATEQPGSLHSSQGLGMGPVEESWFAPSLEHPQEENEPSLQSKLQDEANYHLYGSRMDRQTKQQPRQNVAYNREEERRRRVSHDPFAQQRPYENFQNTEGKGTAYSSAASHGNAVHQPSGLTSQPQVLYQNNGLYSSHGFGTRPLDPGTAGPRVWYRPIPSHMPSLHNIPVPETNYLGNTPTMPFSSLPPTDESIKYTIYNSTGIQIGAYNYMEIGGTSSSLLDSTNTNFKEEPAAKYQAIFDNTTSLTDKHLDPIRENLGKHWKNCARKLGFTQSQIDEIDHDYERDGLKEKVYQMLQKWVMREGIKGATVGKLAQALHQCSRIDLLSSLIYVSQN
Assay: Cell Viability Test
Source text: TNFalpha induced U937 cell programmed necroptosis system was used to screen for compounds with RIP 1 kinase inhibitory activity.

| Compound | IC50 |
| --- | --- |
| CN1C(=O)[C@@H](NC(=O)c2ncc(Cc3ccccc3)o2)COc2ccc(C#Cc3cccnc3)cc21 [US12065447, Compound ZB-R-20] | < 500 pM |
| CN1C(=O)[C@@H](NC(=O)c2ncn(Cc3ccccc3)n2)COc2ccc(C#Cc3cccnc3)cc21 [US12065447, Compound ZB-R-24] | < 1000 pM |
| CN1C(=O)[C@@H](NC(=O)c2cc(Cc3ccccc3)ccn2)COc2ccc(C#Cc3cccnc3)cc21 [US12065447, Compound ZB-R-25] | < 2000 pM |
| Cc1c(C#Cc2cnn(C)c2)sc2c1SC[C@H](NC(=O)c1nnc(Cc3ccccc3)[nH]1)C(=O)N2C [US12065447, Compound ZB-R-39] | 170 pM |
| Cc1c(C#Cc2cccnc2)sc2c1SC[C@H](NC(=O)c1nnc(Cc3ccccc3)[nH]1)C(=O)N2C [US12065447, Compound ZB-R-42] | 320 pM |
| Cc1c(C#CC2CCOCC2)sc2c1SC[C@H](NC(=O)c1nnc(Cc3ccccc3)[nH]1)C(=O)N2C [US12065447, Compound ZB-R-44] | 4080 pM |
| Cc1c(C#CC2CC2)sc2c1SC[C@H](NC(=O)c1nnc(Cc3ccccc3)[nH]1)C(=O)N2C [US12065447, Compound ZB-R-45] | 8130 pM |
| Cc1c(C#Cc2ccccn2)sc2c1SC[C@H](NC(=O)c1nnc(Cc3ccccc3)[nH]1)C(=O)N2C [US12065447, Compound ZB-R-46] | 5390 pM |
| Cc1c(C#Cc2ccncc2)sc2c1SC[C@H](NC(=O)c1nnc(Cc3ccccc3)[nH]1)C(=O)N2C [US12065447, Compound ZB-R-47] | 390 pM |
| CN1C(=O)[C@@H](NC(=O)c2n[nH]c(Cc3ccccc3)n2)COc2ccc(C#Cc3ccccn3)cc21 [US12065447, Compound ZB-R-50] | 260 pM |
| CN1C(=O)[C@@H](NC(=O)c2n[nH]c(Cc3ccccc3)n2)COc2ccc(C#Cc3cccnc3)cc21 [US12065447, Compound ZB-R-51] | < 500 pM |
| CN1C(=O)[C@@H](NC(=O)c2n[nH]c(Cc3ccccc3)n2)COc2ccc(C#Cc3ccncc3)cc21 [US12065447, Compound ZB-R-52] | 420 pM |
| CN1C(=O)[C@@H](NC(=O)c2n[nH]c(Cc3ccccc3)n2)COc2ccc(C#Cc3cnn(C)c3)cc21 [US12065447, Compound ZB-R-53] | 110 pM |
| CN1C(=O)[C@@H](NC(=O)c2n[nH]c(Cc3ccccc3)n2)COc2ccc(C#CC3CCOCC3)cc21 [US12065447, Compound ZB-R-54] | 100 pM |
| COCC#Cc1ccc2c(c1)N(C)C(=O)[C@@H](NC(=O)c1nnc(Cc3ccccc3)[nH]1)CO2 [US12065447, Compound ZB-R-68] | 200 pM |
| CN1C(=O)[C@@H](NC(=O)c2n[nH]c(Cc3ccccc3)n2)COc2ccc(C#CC(C)(C)O)cc21 [US12065447, Compound ZB-R-76] | 540 pM |
| CN1C(=O)[C@@H](NC(=O)c2n[nH]c(Cc3ccccc3)n2)COc2ccc(C#CC3(O)COC3)cc21 [US12065447, Compound ZB-R-78] | 350 pM |
| Cc1cc([C@](C)(O)C#Cc2ccc3c(c2)N(C)C(=O)[C@@H](NC(=O)c2nnc(Cc4ccccc4)[nH]2)CO3)no1 [US12065447, Compound ZB-R-80] | 310 pM |
| Cc1cc([C@@](C)(O)C#Cc2ccc3c(c2)N(C)C(=O)[C@@H](NC(=O)c2nnc(Cc4ccccc4)[nH]2)CO3)no1 [US12065447, Compound ZB-R-81] | 290 pM |
| Cc1c(C#Cc2cncn2C)sc2c1SC[C@H](NC(=O)c1nnc(Cc3ccccc3)[nH]1)C(=O)N2C [US12065447, Compound ZB-R-82] | 300 pM |
| COCC#Cc1sc2c(c1C)SC[C@H](NC(=O)c1nnc(Cc3ccccc3)[nH]1)C(=O)N2C [US12065447, Compound ZB-R-84] | 190 pM |
| Cc1c(C#CC(C)(C)O)sc2c1SC[C@H](NC(=O)c1nnc(Cc3ccccc3)[nH]1)C(=O)N2C [US12065447, Compound ZB-R-85] | 1090 pM |
| Cc1c(C#CC2(O)COC2)sc2c1SC[C@H](NC(=O)c1nnc(Cc3ccccc3)[nH]1)C(=O)N2C [US12065447, Compound ZB-R-87] | 200 pM |
| Cc1cc([C@](C)(O)C#Cc2sc3c(c2C)SC[C@H](NC(=O)c2nnc(Cc4ccccc4)[nH]2)C(=O)N3C)no1 [US12065447, Compound ZB-R-89] | 1700 pM |
